Experimental data reported in ChEMBL document CHEMBL4602605, “Fluoroquinolones structural and medicinal developments (2013-2018): Where are we now?” (Bioorg Med Chem, 2019).
Converted amounts (≈) assume the structure as drawn. One block for each compound: values may come before it.

How the values were obtained:
Type in all cases: functional
[1] = system: Staphylococcus aureus; test: Antimicrobial activity against Staphylococcus aureus ATCC 25923 incubated for 18 to 24 hrs
[2] = system: Staphylococcus aureus; test: Antimicrobial activity against methicillin-resistant Staphylococcus aureus ATCC 12-1 incubated for 18 to 24 hrs
[3] = system: Staphylococcus epidermidis; test: Antimicrobial activity against methicillin-resistant Staphylococcus epidermidis 12-1 incubated for 18 to 24 hrs
[4] = system: Escherichia coli; test: Antimicrobial activity against Escherichia coli ATCC 25922 incubated for 18 to 24 hrs
[5] = system: Pseudomonas aeruginosa; test: Antimicrobial activity against Pseudomonas aeruginosa ATCC 12-12 incubated for 18 to 24 hrs
[6] = system: Pseudomonas aeruginosa; test: Antimicrobial activity against Pseudomonas aeruginosa ATCC 27853 incubated for 18 to 24 hrs by disk diffusion method
[7] = system: Escherichia coli; test: Antimicrobial activity against Escherichia coli ATCC 25922 incubated for 18 to 24 hrs by disk diffusion method
[8] = system: Staphylococcus aureus; test: Antimicrobial activity against Staphylococcus aureus ATCC 25923 incubated for 18 to 24 hrs by disk diffusion method
[9] = system: Bacillus subtilis; test: Antimicrobial activity against Bacillus subtilis 10B incubated for 18 to 24 hrs by disk diffusion method
[10] = system: Escherichia coli; test: Antimicrobial activity against Escherichia coli ATCC 8739 by agar dilution method
[11] = system: Staphylococcus aureus; test: Antimicrobial activity against Staphylococcus aureus ATCC 6538 by agar dilution method
[12] = system: Pseudomonas aeruginosa; test: Antimicrobial activity against Pseudomonas aeruginosa ATCC 9027 by agar well diffusion method
[13] = system: Aspergillus clavatus; test: Antifungal activity against Aspergillus clavatus after overnight incubation by agar well diffusion method
[14] = system: Staphylococcus epidermidis; test: Antimicrobial activity against methicillin-susceptible Staphylococcus epidermidis clinical isolate incubated for 16 hrs by CLSI based agar dilution method
[15] = system: Staphylococcus epidermidis; test: Antimicrobial activity against methicillin-resistant Staphylococcus epidermidis clinical isolate incubated for 16 hrs by CLSI based agar dilution method
[16] = system: Staphylococcus aureus; test: Antimicrobial activity against methicillin-susceptible Staphylococcus aureus clinical isolate incubated for 16 hrs by CLSI based agar dilution method
[17] = system: Staphylococcus aureus; test: Antimicrobial activity against methicillin-resistant Staphylococcus aureus clinical isolate incubated for 16 hrs by CLSI based agar dilution method
[18] = system: Escherichia coli; test: Antimicrobial activity against Escherichia coli ATCC 700603 incubated for 16 hrs by CLSI-based agar dilution method; conditions: ATCC 700603, 16 h
[19] = system: Klebsiella pneumoniae; test: Antimicrobial activity against Klebsiella pneumoniae ATCC 29522 incubated for 16 hrs by CLSI-based agar dilution method; conditions: ATCC 29522, 16 h

Structure (SMILES): CO/N=C1\CCN(c2c(F)cc3c(=O)c(C(=O)O)cn(C4CC4)c3c2OC)CC1NC(=O)C(C)NC(=O)C(C)N (configuration not stated)
MIC [1]: 4 µg/mL (≈ 7.14 µM)
MIC [2]: > 128 µg/mL
MIC [3]: 64 µg/mL (≈ 114 µM)
MIC [4]: 32 µg/mL (≈ 57.1 µM)
MIC [5]: 128 µg/mL (≈ 228 µM)

MIC [6]: 138 µg/mL (≈ 547 µM)
MIC [7]: 24.6 µg/mL (≈ 97.3 µM)
MIC [8]: 369 µg/mL (≈ 1460 µM)
MIC [9]: 29.6 µg/mL (≈ 117 µM)
Structure (SMILES): CCn1cc(C(=O)O)c(=O)c2cc(F)c(F)cc21

MIC [10]: 2 µg/mL (≈ 5.44 µM)
MIC [11]: 4 µg/mL (≈ 10.9 µM)
MIC [12]: 1 µg/mL (≈ 2.72 µM)
Structure (SMILES): CCn1cc(C(=O)O)c(=O)c2cc(F)c(N3CCN(C)CC3)c(Cl)c21

Structure (SMILES): CO/N=C1\CCN(c2c(F)cc3c(=O)c(C(=O)O)cn(C4CC4)c3c2OC)CC1NC(=O)[C@H](N)[C@H](C)O (some centres not stated)
MIC [1]: 2 µg/mL (≈ 3.85 µM)
MIC [2]: 128 µg/mL (≈ 246 µM)
MIC [3]: 64 µg/mL (≈ 123 µM)
MIC [4]: 16 µg/mL (≈ 30.8 µM)
MIC [5]: 64 µg/mL (≈ 123 µM)

Structure (SMILES): COc1c(N2CCN(C)CC2)c(F)cc2c(=O)c(C(=O)N/N=C\c3ccc(F)cc3)cn(C3CC3)c12
inhibition zone (IZ) [13]: 11 mm

Structure (SMILES): O=C(O)c1cn(CCF)c2c(F)c(N3CCN(CC(O)Cn4cc([N+](=O)[O-])nc4Cl)CC3)c(F)cc2c1=O (configuration not stated)
MIC [14]: 16 µg/mL (≈ 28.6 µM)
MIC [15]: 2 µg/mL (≈ 3.58 µM)
MIC [16]: 16 µg/mL (≈ 28.6 µM)
MIC [17]: 32 µg/mL (≈ 57.3 µM)
MIC [18]: > 32 µg/mL
MIC [19]: > 32 µg/mL

Structure (SMILES): CCn1cc(C(=O)O)c(=O)c2cc(F)c(N3CCN(CC(O)Cn4cc([N+](=O)[O-])nc4Cl)C(C)C3)c(F)c21 (configuration not stated)
MIC [14]: 2 µg/mL (≈ 3.6 µM)
MIC [15]: 0.125 µg/mL (≈ 0.225 µM)
MIC [16]: 4 µg/mL (≈ 7.21 µM)
MIC [17]: 32 µg/mL (≈ 57.7 µM)
MIC [18]: 4 µg/mL (≈ 7.21 µM)
MIC [19]: 32 µg/mL (≈ 57.7 µM)

MIC [10]: 16 µg/mL (≈ 47.2 µM)
MIC [11]: < 0.125 µg/mL
MIC [12]: 8 µg/mL (≈ 23.6 µM)
Structure (SMILES): CCn1cc(C(=O)O)c(=O)c2cc(F)c(N3CCCC3)c(Cl)c21

Structure (SMILES): COc1c(N2C[C@@H]3CCCN(C[C@H](O)Cn4cc([N+](=O)[O-])nc4C)[C@@H]3C2)c(F)cc2c(=O)c(C(=O)O)cn(C3CC3)c12
MIC [14]: 0.125 µg/mL (≈ 0.214 µM)
MIC [15]: 0.03 µg/mL (≈ 0.0513 µM)
MIC [16]: 0.125 µg/mL (≈ 0.214 µM)
MIC [17]: 2 µg/mL (≈ 3.42 µM)
MIC [18]: 2 µg/mL (≈ 3.42 µM)
MIC [19]: 1 µg/mL (≈ 1.71 µM)

Structure (SMILES): CCC(C)[C@H](N)C(=O)NC1CN(c2c(F)cc3c(=O)c(C(=O)O)cn(C4CC4)c3c2OC)CC/C1=N\OC (some centres not stated)
MIC [1]: 0.5 µg/mL (≈ 0.941 µM)
MIC [2]: 64 µg/mL (≈ 120 µM)
MIC [3]: 64 µg/mL (≈ 120 µM)
MIC [4]: 8 µg/mL (≈ 15 µM)
MIC [5]: 128 µg/mL (≈ 241 µM)

MIC [10]: 31.2 µg/mL
MIC [11]: 2 µg/mL
MIC [12]: 128 µg/mL
Structure (SMILES): CCn1cc(C(=O)O)c(=O)c2cc(F)c(N3CCNC(C)C3)c(Cl)c21.Cl (configuration not stated)

MIC [10]: 8 µg/mL (≈ 21.8 µM)
MIC [11]: 2 µg/mL (≈ 5.45 µM)
MIC [12]: 128 µg/mL (≈ 349 µM)
Structure (SMILES): CCn1cc(C(=O)O)c(=O)c2cc(F)c(N3CCCC(C)C3)c(Cl)c21 (configuration not stated)

Structure (SMILES): O=C(O)c1cn(C2CC2)c2nc(N3CCN(CC(O)Cn4cc([N+](=O)[O-])nc4Cl)CC3)c(F)cc2c1=O (configuration not stated)
MIC [14]: 2 µg/mL (≈ 3.73 µM)
MIC [15]: 0.125 µg/mL (≈ 0.233 µM)
MIC [16]: 4 µg/mL (≈ 7.46 µM)
MIC [17]: 16 µg/mL (≈ 29.9 µM)
MIC [18]: 16 µg/mL (≈ 29.9 µM)
MIC [19]: > 32 µg/mL

Structure (SMILES): COc1c(N2CCCC(N(C)CC(O)Cn3cc([N+](=O)[O-])nc3Cl)C2)c(F)cc2c(=O)c(C(=O)O)cn(C3CC3)c12 (configuration not stated)
MIC [14]: 0.5 µg/mL (≈ 0.843 µM)
MIC [15]: 0.25 µg/mL (≈ 0.422 µM)
MIC [16]: 0.5 µg/mL (≈ 0.843 µM)
MIC [17]: 8 µg/mL (≈ 13.5 µM)
MIC [18]: 4 µg/mL (≈ 6.75 µM)
MIC [19]: > 32 µg/mL

MIC [10]: 2 µg/mL (≈ 5.19 µM)
MIC [11]: 4 µg/mL (≈ 10.4 µM)
MIC [12]: 16 µg/mL (≈ 41.5 µM)
Structure (SMILES): N[C@@H]1CCN2c3c(F)cc4c(=O)c(C(=O)O)cn(C5CC5)c4c3CCCC[C@H]12

Structure (SMILES): CO/N=C1\CCN(c2c(F)cc3c(=O)c(C(=O)O)cn(C4CC4)c3c2OC)CC1NC(=O)[C@H]1CCCN1 (some centres not stated)
MIC [1]: 0.25 µg/mL (≈ 0.485 µM)
MIC [2]: 64 µg/mL (≈ 124 µM)
MIC [3]: 64 µg/mL (≈ 124 µM)
MIC [4]: 4 µg/mL (≈ 7.76 µM)
MIC [5]: 64 µg/mL (≈ 124 µM)

Structure (SMILES): COc1c(N2C[C@@H]3CCCN(CC(O)Cn4cc([N+](=O)[O-])nc4C)[C@@H]3C2)c(F)cc2c(=O)c(C(=O)O)cn(C3CC3)c12 (some centres not stated)
MIC [14]: 0.25 µg/mL (≈ 0.428 µM)
MIC [15]: 0.125 µg/mL (≈ 0.214 µM)
MIC [16]: 0.5 µg/mL (≈ 0.855 µM)
MIC [17]: 8 µg/mL (≈ 13.7 µM)
MIC [18]: 4 µg/mL (≈ 6.84 µM)
MIC [19]: 8 µg/mL (≈ 13.7 µM)

Structure (SMILES): CO/N=C1\CCN(c2c(F)cc3c(=O)c(C(=O)O)cn(C4CC4)c3c2OC)CC1NC(=O)[C@H](N)Cc1ccccc1 (some centres not stated)
MIC [1]: 0.125 µg/mL (≈ 0.221 µM)
MIC [2]: 64 µg/mL (≈ 113 µM)
MIC [3]: 64 µg/mL (≈ 113 µM)
MIC [4]: 16 µg/mL (≈ 28.3 µM)
MIC [5]: 128 µg/mL (≈ 226 µM)

Structure (SMILES): CCn1cc(C(=O)O)c(=O)c2cc(F)c(N3CCN(CC(O)Cn4cc([N+](=O)[O-])nc4Cl)CC3)nc21 (configuration not stated)
MIC [14]: 2 µg/mL (≈ 3.82 µM)
MIC [15]: 4 µg/mL (≈ 7.63 µM)
MIC [16]: 16 µg/mL (≈ 30.5 µM)
MIC [17]: 32 µg/mL (≈ 61.1 µM)
MIC [18]: > 32 µg/mL
MIC [19]: > 32 µg/mL

MIC [6]: > 500 µg/mL
MIC [7]: 150 µg/mL (≈ 451 µM)
MIC [8]: > 500 µg/mL
MIC [9]: > 500 µg/mL
Structure (SMILES): CCn1cc(C(=O)O)c(=O)c2cc(F)c(Nc3n[nH]c(N)n3)cc21

Structure (SMILES): CO/N=C1\CCN(c2c(F)cc3c(=O)c(C(=O)O)cn(C4CC4)c3c2OC)CC1NC(=O)[C@H](N)CO (some centres not stated)
MIC [1]: 1 µg/mL (≈ 1.98 µM)
MIC [2]: 64 µg/mL (≈ 127 µM)
MIC [3]: 64 µg/mL (≈ 127 µM)
MIC [4]: 16 µg/mL (≈ 31.7 µM)
MIC [5]: 128 µg/mL (≈ 253 µM)

Structure (SMILES): COc1c(N2CCCC(N(C)C[C@@H](O)Cn3cc([N+](=O)[O-])nc3C)C2)c(F)cc2c(=O)c(C(=O)O)cn(C3CC3)c12 (some centres not stated)
MIC [14]: 1 µg/mL (≈ 1.75 µM)
MIC [15]: 0.25 µg/mL (≈ 0.437 µM)
MIC [16]: 1 µg/mL (≈ 1.75 µM)
MIC [17]: 32 µg/mL (≈ 55.9 µM)
MIC [18]: 8 µg/mL (≈ 14 µM)
MIC [19]: 16 µg/mL (≈ 27.9 µM)
